From patent publication US9617244B2, “Antibacterial quinoline derivatives” (JANSSEN PHARMACEUTICA NV, priority 2012, dated 2017)
In brackets after ≈: the same amount, converted by molar mass. Where a name gives a salt, the structure may show the parent alone.

Test system: Staphylococcus aureus (ATCC29213)
Assay: In-vitro anti-bacterial activity, microtitre plate assay, IC90 determination (non-mycobacterial strains)
Format: cell-based
Details: 90% inhibitory concentration for bacterial growth, 24 hours, resazurin fluorescence
Outline: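 Inoculum of about 100 TCID50 (10–60 CFU/well) in Mueller-Hinton broth, serial five-fold compound dilutions, 24 h at 37 °C in air. Growth read by resazurin fluorescence (ex 530/em 590 nm); IC90 in μg/ml as 90% growth inhibition.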

| IC90 STA B29213 [µg/mL] | SMILES |
| --- | --- |
| 4.38 (≈ 7.94 µM) | COc1nc2ccc(Br)cc2cc1C(c1ccc(Cl)cc1)C1(O)CCNC(Cc2ccccc2)C1 (centres unmarked) [Compound 70] |

Same assay, conditions: Staphylococcus aureus, ATCC29213, 24 h, 90% inhibitory concentration for bacterial growth, resazurin fluorescence, read-out: IC90 STA B29213

| IC90 [µg/mL] | SMILES |
| --- | --- |
| > 10.9 | O=c1[nH]c2ccc(Cl)cc2cc1C(c1ccc(Cl)cc1)C1(O)CCNC(CO)C1 (centres unmarked) [Compound 20] |
| > 9.96 | COc1nc2ccc(F)cc2cc1C(c1ccccc1)C1(O)CCNC(CO)C1 (centres unmarked) [Compound 29] |

Test system: not given
Assay: not given
Details: not given

| melting point [°C] | SMILES |
| --- | --- |
| > 250 | CS(=O)(=O)c1ccc2[nH]c(=O)c(C(c3ccc(Cl)cc3)C3(O)CCNC(Cc4ccc(F)c(F)c4)C3)cc2c1 (centres unmarked) (as salt: hydrochloride) [Compound 212] |
| > 250 | Cc1cc(F)ccc1C1CC(O)(C(c2ccc(Cl)cc2)c2cc3cc(S(C)(=O)=O)ccc3[nH]c2=O)CCN1 (centres unmarked) (as salt: hydrochloride) [Compound 220] |
| > 250 | O=c1[nH]c2ccc(Cl)cc2cc1C(c1ccc(Cl)cc1)C1(O)CCNC(Cc2ccccc2)C1 (centres unmarked) (as salt: hydrochloride) [Compound 239] |
| > 250 | CSc1ccc2[nH]c(=O)c(C(c3ccc(Cl)cc3)C3(O)CCNC(Cc4ccc(F)cc4)C3)cc2c1 (centres unmarked) (as salt: hydrochloride) [Compound 281] |
| 206 | CSc1ccc2[nH]c(=O)c(C(c3ccc(Cl)cc3)C3(O)CCNC(Cc4ccc(F)cc4)C3)cc2c1 (centres unmarked) (as salt: hydrochloride) [Compound 282] |
| > 250 | Cc1cc(F)ccc1C1CC(O)(C(c2ccc(Cl)cc2)c2cc3cc(Cl)ccc3[nH]c2=O)CCN1 (centres unmarked) (as salt: hydrochloride) [Compound 303] |
| 232 | CS(=O)(=O)c1ccc2[nH]c(=O)c(C(c3cccc(Cl)c3)C3(O)CCNC(Cc4ccc(F)cc4F)C3)cc2c1 (centres unmarked) (as salt: hydrochloride) [Compound 307] |
| > 260 | CS(=O)(=O)c1ccc2[nH]c(=O)c(C(c3cccc(Cl)c3)C3(O)CCNC(Cc4ccc(F)cc4F)C3)cc2c1 (centres unmarked) (as salt: hydrochloride) [Compound 308] |
| 234 | O=c1[nH]c2ccc(Br)cc2cc1C(c1ccc(Cl)cc1)C1(O)CCNC(Cc2ccc(F)cc2F)C1 (centres unmarked) (as salt: hydrochloride) [Compound 314] |
| > 260 | O=c1[nH]c2ccc(Br)cc2cc1C(c1ccc(Cl)cc1)C1(O)CCNC(Cc2ccc(F)cc2F)C1 (centres unmarked) (as salt: hydrochloride) [Compound 315] |
| 248 | O=c1[nH]c2ccc(Br)cc2cc1C(c1ccc(Cl)cc1)C1(O)CCNC(Cc2ccc(F)cc2F)C1 (centres unmarked) (as salt: hydrochloride) [Compound 322] |
| 248 | CS(=O)(=O)c1ccc2[nH]c(=O)c(C(c3cccc(Cl)c3)C3(O)CCNC(Cc4ccc(F)cc4F)C3)cc2c1 (centres unmarked) (as salt: hydrochloride) [Compound 327] |
| 232 | CSc1ccc2[nH]c(=O)c(C(c3ccc(Cl)cc3)C3(O)CCNC(Cc4ccc(F)cc4)C3)cc2c1 (centres unmarked) (as salt: hydrochloride) [Compound 334] |
| > 260 | O=c1[nH]c2ccc(Br)cc2cc1C(c1ccc(Cl)cc1)C1(O)CCNC(Cc2ccc(F)cc2)C1 (centres unmarked) (as salt: hydrochloride) [Compound 341] |
| > 250 | O=c1[nH]c2ccc(Cl)cc2cc1C(c1ccc(Cl)cc1)C1(O)CCNC(Cc2ccc(F)cc2)C1 (centres unmarked) (as salt: hydrochloride) [Compound 343] |
| 242 | O=c1[nH]c2ccc(Br)cc2cc1C(c1ccc(Cl)cc1)C1(O)CCNC(Cc2ccc(F)cc2)C1 (centres unmarked) (as salt: hydrochloride) [Compound 365] |
| > 250 | O=c1[nH]c2ccc(F)cc2cc1C(c1ccc(Cl)cc1)C1(O)CCNC(Cc2ccccc2)C1 (centres unmarked) (as salt: hydrochloride) [Compound 375] |
| 133 | COc1nc2ccc(S(C)(=O)=O)cc2cc1C(c1ccc(Cl)cc1)C1(O)CCNC(Cc2ccc(F)cc2F)C1 (centres unmarked) (as salt: trifluoroacetate) [Compound 305] |
| 157 | COc1nc2ccc(S(C)(=O)=O)cc2cc1C(c1ccc(Cl)cc1)C1(O)CCNC(Cc2ccc(F)cc2F)C1 (centres unmarked) (as salt: trifluoroacetate) [Compound 306] |
| > 250 | CS(=O)(=O)c1ccc2[nH]c(=O)c(C(c3ccc(Cl)cc3)C3(O)CCN[C@@H](Cc4ccc(F)c(F)c4)C3)cc2c1 (stereo in doubt) (as salt: hydrochloride) [Compound 205] |
| 245 | CS(=O)(=O)c1ccc2[nH]c(=O)c(C(c3ccc(Cl)cc3)C3(O)CCN[C@@H](Cc4ccc(F)c(F)c4)C3)cc2c1 (stereo in doubt) (as salt: hydrochloride) [Compound 206] |
| 111 | COc1nc2ccc(Br)cc2cc1C(c1ccc(Cl)cc1)C1(O)CCNC(Cc2ccc(F)c(F)c2)C1 (centres unmarked) [Compound 111] |

Further lines, the compound ahead of its results:

| SMILES | melting point [°C] |
| --- | --- |
| Cc1cc(F)ccc1C1CC(O)(C(c2cccc(Cl)c2)c2cc3cc(Br)ccc3[nH]c2=O)CCN1 (centres unmarked) (as salt: hydrochloride) [Compound 135] | > 250 |
| Cc1cc(F)ccc1C1CC(O)(C(c2cccc(Cl)c2)c2cc3cc(S(C)(=O)=O)ccc3[nH]c2=O)CCN1 (centres unmarked) (as salt: hydrochloride) [Compound 159] | > 250 |
| CSc1ccc2[nH]c(=O)c(C(c3cccc(Cl)c3)C3(O)CCNC(c4ccc(F)cc4C)C3)cc2c1 (centres unmarked) (as salt: hydrochloride) [Compound 160] | > 250 |
| Cc1cc(F)ccc1C1CC(O)(C(c2ccccc2)c2cc3cc(Br)ccc3[nH]c2=O)CCN1 (centres unmarked) (as salt: hydrochloride) [Compound 192] | > 250 |
| O=c1[nH]c2ccc(Br)cc2cc1C(c1ccc(Cl)cc1)C1(O)CCNCC1Cc1cccc(F)c1 (centres unmarked) (as salt: hydrochloride) [Compound 229] | > 250 |
| CSc1ccc2[nH]c(=O)c(C(c3ccc(Cl)cc3)C3(O)CCNC(c4ccccc4)C3)cc2c1 (centres unmarked) (as salt: hydrochloride) [Compound 230] | > 250 |
| Cc1cc(F)ccc1C1CC(O)(C(c2ccccc2)c2cc3cc(-c4cccnc4)ccc3[nH]c2=O)CCN1 (centres unmarked) (as salt: hydrochloride) [Compound 236] | > 250 |
| Cc1cc(F)ccc1C1CC(O)(C(c2ccccc2)c2cc3cc(S(C)(=O)=O)ccc3[nH]c2=O)CCN1 (centres unmarked) (as salt: hydrochloride) [Compound 237] | > 250 |
| O=c1[nH]c2ccc(Br)cc2cc1C(c1ccc(Cl)cc1)C1(O)CCNC(CC2CCCCC2)C1 (centres unmarked) (as salt: hydrochloride) [Compound 254] | > 250 |
| CSc1ccc2[nH]c(=O)c(C(c3ccc(Cl)cc3)C3(O)CCNC(c4ccc(F)cc4C)C3)cc2c1 (centres unmarked) (as salt: hydrochloride) [Compound 266] | > 250 |
| CSc1ccc2[nH]c(=O)c(C(c3ccc(Cl)cc3)C3(O)CCNC(CC4CCCCC4)C3)cc2c1 (centres unmarked) (as salt: hydrochloride) [Compound 295] | > 250 |
| CSc1ccc2[nH]c(=O)c(C(c3cccc(Cl)c3)C3(O)CCNC(Cc4ccc(F)cc4F)C3)cc2c1 (centres unmarked) (as salt: hydrochloride) [Compound 309] | > 260 |
| CSc1ccc2[nH]c(=O)c(C(c3cccc(Cl)c3)C3(O)CCNC(Cc4ccc(F)cc4F)C3)cc2c1 (centres unmarked) (as salt: hydrochloride) [Compound 310] | 126 |
| CSc1ccc(C(c2cc3cc(Cl)ccc3[nH]c2=O)C2(O)CCNC(c3ccc(F)cc3C)C2)cc1 (centres unmarked) (as salt: hydrochloride) [Compound 349] | > 250 |
| O=c1[nH]c2ccc(Cl)cc2cc1C(c1ccc(Cl)cc1)C1(O)CCNCC1F (centres unmarked) (as salt: hydrochloride) [Compound 457] | > 250 |
| COc1nc2ccc(Br)cc2cc1C(c1ccc(Cl)cc1)C1(O)CCN(Cc2ccccc2)CC1C (centres unmarked) (as salt: salt) [Compound 25] | 154 |

| SMILES | melting point [°C] |
| --- | --- |
| COc1nc2ccc(Br)cc2cc1C(c1ccc(Cl)cc1)C1(O)CCN(Cc2ccccc2)CC1C (centres unmarked) (as salt: salt) [Compound 26] | 238 |
| COc1nc2ccc(SC)cc2cc1C(c1cccc(Cl)c1)C1(O)CCNC(Cc2ccc(F)cc2F)C1 (centres unmarked) (as salt: trifluoroacetate) [Compound 50] | 208 |
| COc1nc2ccc(Br)cc2cc1C(c1ccc(Cl)cc1)C1(O)CCNC(Cc2ccc(F)cc2F)C1 (centres unmarked) (as salt: trifluoroacetate) [Compound 51] | 176 |
| COc1nc2ccc(Br)cc2cc1C(c1ccc(Cl)cc1)C1(O)CCNC(Cc2ccc(F)cc2F)C1 (centres unmarked) (as salt: trifluoroacetate) [Compound 313] | 147 |
| COc1nc2ccc(Br)cc2cc1C(c1ccc(Cl)cc1)C1(O)CCNC(Cc2ccc(F)cc2F)C1 (centres unmarked) (as salt: trifluoroacetate) [Compound 319] | 169 |
| COc1nc2ccc(S(C)(=O)=O)cc2cc1C(c1cccc(Cl)c1)C1(O)CCNC(Cc2ccc(F)cc2F)C1 (centres unmarked) (as salt: trifluoroacetate) [Compound 325] | 144 |
| COc1nc2ccc(S(C)(=O)=O)cc2cc1C(c1cccc(Cl)c1)C1(O)CCNC(Cc2ccc(F)cc2F)C1 (centres unmarked) (as salt: trifluoroacetate) [Compound 326] | 166 |
| COc1nc2ccc(Br)cc2cc1C(n1cccn1)[C@@]1(O)CCN[C@H](Cc2ccccc2)C1 (stereo in doubt) (as salt: fumarate) [Compound 67] | 245 |
| O=c1[nH]c2ccc(Cl)cc2cc1C(c1ccc(Cl)cc1)C1(O)CCNC(CO)C1 (centres unmarked) [Compound 20] | 232 |
| COc1nc2ccc(F)cc2cc1C(c1ccccc1)C1(O)CCNC(CO)C1 (centres unmarked) [Compound 29] | 135 |
| COc1nc2ccc(Br)cc2cc1C(c1ccc(Cl)cc1)C1(O)CCNC(Cc2ccccc2)C1 (centres unmarked) [Compound 70] | 112 |
| COc1nc2ccc(Br)cc2cc1C(c1ccccc1)C1(O)CCNC(Cc2ccccc2)C1 (centres unmarked) [Compound 74] | 157 |
| COc1nc2ccc(Br)cc2cc1C(c1ccc(Cl)cc1)C1(O)CCN(Cc2ccccc2)C(Cc2ccccc2)C1 (centres unmarked) [Compound 75] | 192 |
| COc1nc2ccc(Br)cc2cc1C(c1ccc(Cl)cc1)C1(O)CCNC(Cc2ccccc2)C1 (centres unmarked) [Compound 78] | 130 |
| COc1nc2ccc(Br)cc2cc1C(c1ccc(Cl)cc1)C1(O)CCNC(C)C1 (centres unmarked) [Compound 123] | 210 |
